Test results: US20080108706A1, “Chemical resection of pancreas” (priority 1999, published 2008)

Experiments:
[1] = test system: native polyamine levels in AR42J cells; assay: Polyamine pool analysis in AR42J cells; type: cell-based; settings: 5 μm analogue
Procedure: In addition, the effect of (OH)2DEHSPM on the native polyamine levels in this cell line was evaluated.

[2] = test system: Pancreatic Ductal Adenocarcinoma #03; assay: Evaluation against early stage pancreatic ductal adenocarcinoma #03 in BDF mice; type: in vivo
Text: Male BDF mice (12 weeks old, weight approximately 28.9 g) were implanted with the pancreatic ductal cell carcinoma #03 3 days before beginning treatment with (HO)2DEHSPM.

[3] = Non-tumor-bearing toxicity controls, same regimens; type: in vivo; settings: group 3, NTB; IV QD 3, 4, 6-9, 14, 17, 18; total dosage 240 mg/kg
[4] = test system: pancreatic native polyamine pools; assay: Tissue drug and native polyamine levels (pancreas, liver) in treated dogs; type: in vivo, beagles
Text: The two dogs (#490 and 494) were fed a prescription canned and dry dog food and were supplemented with Viokase, a pancreatic enzyme preparation, by mixing three tablets with food or by oral administration immediately before each feeding. The dogs were maintained on this regimen for approximately three weeks. During this time, their weight and blood chemistries were closely monitored. The Viokase supplementation was then stopped and the same parameters were again evaluated. One week after the Viokase administration had ceased, the animals were euthanized and tissues were taken for histology and for the determination of tissue polyamine levels.
As the pancreatic insufficiency side-effect that was observed after the administration of the (R,R)—(HO)2DEHSPM to the beagles may have been related to the (R,R)-chirality of the molecule, the (S,S)-enantiomer was synthesized and was compared in a head-to-head fashion with the (R,R)-enantiomer. To perform this experiment, five male beagles approximately 6-8 months of age were obtained from Harlan Sprague Dawley. There were provided with food and water ad libitum and were allowed to acclimate to their new surroundings for two weeks. The animals were weighed prior to starting drug administration and were weighed once per week during the drug dosing period. A CBC and chemistry panel and a Holter monitor were performed once per week. In addition to the usual tests, additional pancreatic function-specific tests were also performed. These additional evaluations included a fecal trypsin test, examination of the feces for fecal fat and serum trypsin-like immunoreactivity determinations. It was hoped that these signs of pancreatic insufficiency would only appear in the animals given the (R,R)-enantiomer and would not be observed in the dogs that were given the (S,S)-molecule. The pancreatic insufficiency may not become evident until approximately 7-8 weeks post-drug. At the conclusion of the experiment, all of the animals were sacrificed and the histology and tissue polyamine levels were determined.
• 1. Dogs #468 and 500 were given (R,R)—(HO)2DEHSPM subcutaneously twice daily for 13 days. • 2. They were fed Purina Dog Chow ad libitum and given free access to water. • 3. Polyamine levels in the pancreas were also analyzed at several time points post-drug. • 4. At the start of the experiment, dog #468 weighed 14.4 kg and dog #500 weighed 12.8 kg. The latter animal's weight never exceeded 13.2 kg. At the end of the drug dosing period, dog #468 weighed 13.0 kg, a loss of 1.4 kg; dog #500 weighed 13.2 kg, a gain of 0.4 kg. • 5. […] The pancreatic native polyamine pools (most especially SPD) were markedly diminished compared to untreated control tissue: [SPM]control=3,985 μm v. [SPM10-days post-treatment=2,548 μm (64% of control) [SPD]control=2,820 μm v [SPD]10-days post-treatment=721 μm (25.6% of control) • 6. Dog #468 was bright, alert and responsive until day thirteen of drug administration. […] The dog was fed boiled chicken and rice, as well as Nutrical (a caloric supplement) and cat food and was slowly weaned back to regular dog food. Frank and/or occult blood was found in the dog's stool until about 17-days post-drug. • 7. Dog #500 was bright, alert and responsive throughout the experiment. […] However, stool consistency had normalized by one week post-drug. • 8. […] The inability to digest fats was confirmed when this test was repeated and the fatty meal was supplemented with Viokase (a pancreatic enzyme supplement). […] (2.15 mg/kg every 12 hours) for 13 days • Route: subcutaneously • 1. Dogs #440 and 476 were given (S,S)— (HO)2DEHSPM subcutaneously twice daily for 13 days. • […]. They were fed Purina Dog Chow ad libitum and given free access to water. • 3. At the start of the experiment, dog #440 weighed 11.8 kg.
Two animals were also treated with DEHSPM at a dose equimolar to the (HO)2DEHSPM dosage and sacrificed at 1- and 75-days after the final treatment. […]

[5] = group 2, total dosage 240 mg/kg IV
[6] = group 4, total dosage 205 mg/kg IV
[7] = group 6, total dosage 102.5 mg/kg IV

Question: With `CCNCC[C@@H](O)CNCCCCNC[C@H](O)CCNCC.Cl.Cl.Cl.Cl` [(R,R)-(HO)2DEHSPM, N^1,N^14-Diethyl-3(R) 12(R)-dihydroxyhomospermine tetrahydrochloride] as the compound, how does the Analogue level [1] read?
Answer: Its Analogue level is 4748 pmol/million cells.

Question: What about the “PUT, native polyamine level as % polyamine pools relative to untreated controls” value [1] of the same compound?
Answer: The value was 0%.

Question: And the “SPD, native polyamine level as % polyamine pools relative to untreated controls” value [1]?
Answer: Its value is 21%.

Question: What about the “SPM, native polyamine level as % polyamine pools relative to untreated controls” value [1] of the same compound?
Answer: The value was 82%.

Question: And the “Percent Body Wt. Loss” value ([2]; group 2, tumor-bearing, IV QD 3, 4, 6-9, 14, 17, 18, total dosage 240 mg/kg)?
Answer: Its value is 38%.

Question: And the “Drug Deaths (days of death)” value ([2]; group 2, tumor-bearing, total dosage 240 mg/kg IV)?
Answer: Its value is “none of the mice died”.

Question: What about the Comments [2, 5] of the same compound?
Answer: The Comments was “Inactive”.

Question: And the “Median Tumor Burden (mg) on day 18 (range)” value (“Median Tumor Burden (mg)” below) [2, 5]?
Answer: The value was 651 (138-1324) mg.

Question: What about the “Tumor Free on Day” value [2, 5] of the same compound?
Answer: The value was 0/5.

Question: And the T/C % ([2]; group 2, total dosage 240 mg/kg IV, tumor burden vs control)?
Answer: Its T/C % is 64%.

Question: And the “Percent Body Wt. Loss” value ([2]; group 4, tumor-bearing, IV QD 3-18, total dosage 205 mg/kg)?
Answer: The value was “somewhat less dramatic”.

Question: And the “Median Tumor Burden (mg)” value [2, 6]?
Answer: Its value is 172 (63-965) mg.

Question: And the “T-C” value [2, 6]?
Answer: Its value is 9 days.

Question: And the “Time to 1000 mg days (range)” value [2, 6]?
Answer: Its value is 26.8 (18-28) days.

Question: And the “Tumor Free on Day” value [2, 6]?
Answer: Its value is 0/5.

Question: And the “Log Kill” value ([2]; group 4, total dosage 205 mg/kg IV, Td = 3.5 days)?
Answer: Its value is 0.8.

Question: And the “Percent Body Wt. Loss” value ([2]; group 6, tumor-bearing, IV QD 3-18, total dosage 102.5 mg/kg)?
Answer: Its value is “no significant weight loss”.

Question: What about the Comments [2, 7] of the same compound?
Answer: The Comments was “Inactive”.

Question: What about the “Median Tumor Burden (mg)” value [2, 7] of the same compound?
Answer: The value was 617 (270-748) mg.

Question: What about the “Tumor Free on Day” value [2, 7] of the same compound?
Answer: The value was 0/5.

Question: And the “Percent Body Wt. Loss” value [3]?
Answer: The value was 30%.

Question: What about the “liver concentration of drug (parent+metabolite)” value ([4]; 10-days post-drug) of the same compound?
Answer: The value was 500 μm.

Question: What about the “pancreatic concentration of drug (parent+metabolite)” value ([4]; 10-days post-drug) of the same compound?
Answer: Its value is “exceeded 1,000 μm”.

Question: And the “[SPD] in pancreas” value ([4]; 10-days post-treatment)?
Answer: Its value is 721 μm.

Question: And the “[SPD] in pancreas, % of control” value ([4]; 10-days post-treatment)?
Answer: Its value is 25.6 % of control.

Question: And the “[SPM] in pancreas” value ([4]; 10-days post-treatment)?
Answer: The value was 2,548 μm.

Question: And the “[SPM] in pancreas, % of control” value ([4]; 10-days post-treatment)?
Answer: The value was 64 % of control.

Question: What about the “[SPD] in pancreas” value ([4]; 52-days post-treatment) of the same compound?
Answer: The value was 156 μm.

Question: What about the “[SPD] in pancreas, % of control” value ([4]; 52-days post-treatment) of the same compound?
Answer: Its value is 5.5 % of control.

Question: And the “[SPM] in pancreas” value ([4]; 52-days post-treatment)?
Answer: Its value is 860 μm.

Question: What about the “[SPM] in pancreas, % of control” value ([4]; 52-days post-treatment) of the same compound?
Answer: The value was 21.6 % of control.

Question: What about the “native polyamine levels in pancreas” value ([4]; 75-, 78-, 88- and 92-days post-treatment) of the same compound?
Answer: The value was “stabilized, but at a much lower level than the control pancreas”.

Question: And the “drug remaining in pancreas” value ([4]; 75-, 88- and 92-day post-treatment samples)?
Answer: The value was “almost completely washed out”.

Question: And the “total drug concentration (parent+metabolite) in pancreas” value ([4]; at necropsy (52-days post-treatment) vs 10-days post-treatment)?
Answer: The value was “remained virtually unchanged”.
